We go through 2 molecules from patent US20130085115A1, “COMBINATION THERAPY FOR LYMPHOMA” (Celgene Corporation, priority 2011, published 2013).

Read-outs that look alike come from different tables or passages of the source.

One data set relates to CTCL cells. Put plainly: Apoptosis by Annexin V-FITC flow cytometry in CTCL cell lines. In kind it is cell-based, Human. As to conditions: Annexin V assay measured by flow cytometry; FIGS. 5A-5D. As for the experimental part:
Human CTCL cell lines (Hut78, SeAx, and MyLa) were grown in RPMI 1640 medium supplemented with 10% heat-inactivated fetal bovine serume (FBS), glutamine (2 mM) and streptomycin (100 μg/ml) at 37° C., 5% CO2 and 95% humidity.
Romidepsin was used in a concentration ranging from 0.25 nM to 10 μM. 5-azacitidine was used in a concentration ranging from 500 nM to 10 μM. After 24 to 72 hours of the combined drug treatment, the levels of apoptosis and necrosis were measured by flow cytometry with Annexin V-FITC detection kit.
For orientation: A flow cytometer gives signals particle by particle.

For data set [1] the following is noted: cited from earlier work.

In the data set on CTCL cells, `Nc1ncn([C@@H]2O[C@H](CO)[C@@H](O)[C@H]2O)c(=O)n1` [5-azacitidine, 4-amino-1-β-D-ribofuranozyl-s-triazin-2(1H)-one] yielded an apoptosis of 21.4%. Besides, the solubility entry is on record as “insoluble” in data set [1] (acetone, ethanol and methyl ketone); “soluble” in data set [1] (dimethylsulfoxide (DMSO)); “slightly soluble” in data set [1] (ethanol/water (50/50), propylene glycol and polyethylene glycol); “sparingly soluble” in data set [1] (water, water-saturated octanol, 5% dextrose in water, N-methyl-2-pyrrolidone, normal saline and 5% Tween 80 in water).
Regarding `C/C=C1\NC(=O)[C@H]2CSSCC/C=C/[C@H](CC(=O)N[C@H](C(C)C)C(=O)N2)OC(=O)[C@H](C(C)C)NC1=O` [romidepsin, (1S,4S,7Z,10S,16E,21R)-7-ethylidene-4,2′-bis(1-methylethyl)-2-oxa-12,13-dithia-5,8,20,23-tetrazabicyclo[8.7.6]tricos-16-ene-3,6,9,19,22-pentone], the apoptosis in the data set on CTCL cells came out at 18.8%.
